In patent US20250000881A1, “TREATMENT OF TREATMENT RESISTANT […] PSILOCYBIN” (COMPASS […], priority 2021, published 2025):
Several values for one entry are separate records, joined by “and”; a condition that tells them apart may be missing. Identical values can stand only once.

Experiments:
Assay type in all cases: in vivo, human
adult subjects with TRD [1] = assay: Phase 2b trial in TRD: QIDS-SR-16 self-reported depression; conditions: 25 mg vs 1 mg group, week 3
Description: (§1) Other objectives were to evaluate the effects of psilocybin on quality of life and wellbeing, functioning and associated disability, cognitive function, and anxiety compared to 1 mg psilocybin on: • (a) Quality of life in subject EuroQoL (EQ)-5 dimension-3 level scale (EQ-5D-3L) score change from Baseline to week 3. This will also be assessed at week 12. This assessment was not mandatory. • (b) Quality of life in caregiver EQ-5D-3L score change from Baseline to week 3. This was assessed at week 12. • (c) Functioning and associated disability in the Sheehan Disability Scale (SDS) score change from Baseline to week 3. This was also assessed at week 12. • (d) Cognitive function as measured by the Digit Symbol Substitution Test (DSST) score change from baseline to week 3. This was assessed at day 1 and week 12. • (e) Level of anxiety as measured using the change in Generalised Anxiety Disorder 7 item Scale (GAD-7) total score change from baseline to week 3. This was assessed at week 12. • (f) Subject determined level of depression as measured using the change in Quick Inventory of Depressive Symptomatology Self-Rated (QIDS-SR-16) total score from Baseline to week 3. […] This was assessed at week 12. • (h) To evaluate the impact of different psilocybin doses on real life functional activity estimated from passive data streams collected on a mobile app on subjects' mobile phones. […]

[2] = system: participants with TRD from Example 2; assay: Long term follow-up study: time to any depressive event (KM quartiles)
Description: (§2) The following example is a long term follow up of study of a sustained responder population from Example 2. 58 participants from Example 2 were selected for a long term 52 week follow up study. Of the 58 patients, 22 received a 25 mg dose of psilocybin, 19 received a 10 mg dose of psilocybin, and 17 received a 1 mg dose of psilocybin. […] None of the patients in this study received treatment for depression before their week 12 MADRS visit in Example 2. Patients were analyzed for a change in MADRS total score from Baseline to 12, 16, 20, 24, 28, 40, and 52 weeks.
The primary endpoint of this study was to determine the median time to a depressive event after administration of psilocybin. The depressive event includes: • Initiation of new antidepressant treatment (first new antidepressant treatment in time period only); • Hospitalization due to depression/suicidality; • Suicide attempt, prevention of an imminent suicide attempt, or completed suicide; • Increased suicidality measured by worsening on MADRS item 10; • Active suicidal ideation measured by the C-SSRS; • MADRS worsening; and • Discontinuation for adverse event or lack of efficacy.

adult subjects with TRD [3] = assay: Phase 2b trial in TRD: Generalised Anxiety Disorder-7 item scale (GAD-7); conditions: 25 mg vs 1 mg group, week 3
Description: as §1

adult subjects with TRD [4] = assay: Phase 2b trial in TRD: EQ-5D-3L and EuroQoL Visual Analogue Scale quality of life; conditions: 25 mg vs 1 mg, week 3
Description: as §1

[5] = system: participants with TRD from Example 2; assay: Long term follow-up study: MADRS responders, remitters, sustained responders to week 52
Description: as §2
The secondary endpoint of this study was to determine the change in MADRS total score from Baseline to 12, 16, 20, 24, 28, 40, and 52 weeks post treatment. […] Note, “n*” changed to account for subjects that dropped out the long term study.

CN(C)CCc1c[nH]c2cccc(OP(=O)(O)O)c12 [COMP360, psilocybin]
QIDS-SR-16 total score, least squares mean treatment difference (95% confidence intervals) (adult subjects with TRD [1]): −2.78 (−4.62, −0.95)
Time to any depressive event, KM Q1, estimate (95% CI) ([2]; 1 mg (N = 17)): 6.0 (2.0, 14.0) days
Time to any depressive event, KM Q2 (median), estimate (95% CI) ([2]; 1 mg (N = 17)): 21 days and 21.0 (3.0, 78.0) days
Time to any depressive event, KM Q3, estimate (95% CI) ([2]; 1 mg (N = 17)): 78.0 (21.0, —) days
Time to any depressive event, KM Q1, estimate (95% CI) ([2]; 10 mg (N = 19)): 19.0 (2.0, 41.0) days
Time to any depressive event, KM Q2 (median), estimate (95% CI) ([2]; 10 mg (N = 19)): 43 days and 43.0 (19.0, 142.0) days
Time to any depressive event, KM Q1, estimate (95% CI) ([2]; 25 mg (N = 22)): 24.0 (2.0, 132.0) days
GAD-7 total score, least squares mean (95% confidence intervals) treatment difference (adult subjects with TRD [3]): −1.79 (−3.35, −0.23)
EQ-5D-3L total score, least squares mean treatment difference (adult subjects with TRD [4]): 0.06
EuroQoL Visual Analogue Scale treatment difference (adult subjects with TRD [4]): 6.77
MADRS remitters (MADRS total score≤10) ([5]; 1 mg (N = 17), Week 3): 0/11
MADRS remitters (MADRS total score≤10) ([5]; 1 mg (N = 17), Week 9): 0/8
MADRS relaxed sustained responders ([5]; 1 mg (N = 17), Week 12): 0/7
MADRS remitters (MADRS total score≤10) ([5]; 1 mg (N = 17), Week 12): 0/7
MADRS sustained responders (response at Week 3 and all subsequent visits) ([5]; 1 mg (N = 17), Week 12): 0/7
MADRS relaxed sustained responders ([5]; 1 mg (N = 17), Week 16): 0/5
MADRS remitters (MADRS total score≤10) ([5]; 1 mg (N = 17), Week 16): 0/5
MADRS responders (≥50% reduction from baseline in MADRS total score) ([5]; 1 mg (N = 17), Week 16): 0/5
MADRS sustained responders (response at Week 3 and all subsequent visits) ([5]; 1 mg (N = 17), Week 16): 0/5
MADRS relaxed sustained responders ([5]; 1 mg (N = 17), Week 20): 0/4
MADRS remitters (MADRS total score≤10) ([5]; 1 mg (N = 17), Week 20): 0/4
MADRS sustained responders (response at Week 3 and all subsequent visits) ([5]; 1 mg (N = 17), Week 20): 0/4
MADRS sustained responders (response at Week 3 and all subsequent visits) ([5]; 1 mg (N = 17), Week 24): 0/4
MADRS relaxed sustained responders ([5]; 1 mg (N = 17), Week 28): 0/4
MADRS remitters (MADRS total score≤10) ([5]; 1 mg (N = 17), Week 28): 0/4
MADRS sustained responders (response at Week 3 and all subsequent visits) ([5]; 1 mg (N = 17), Week 28): 0/4
MADRS relaxed sustained responders ([5]; 1 mg (N = 17), Week 40): 0/4
MADRS sustained responders (response at Week 3 and all subsequent visits) ([5]; 1 mg (N = 17), Week 40): 0/4
MADRS relaxed sustained responders ([5]; 1 mg (N = 17), Week 52): 0/4
MADRS remitters (MADRS total score≤10) ([5]; 1 mg (N = 17), Week 52): 0/4
MADRS responders (≥50% reduction from baseline in MADRS total score) ([5]; 1 mg (N = 17), Week 52): 0/4
MADRS sustained responders (response at Week 3 and all subsequent visits) ([5]; 1 mg (N = 17), Week 52): 0/4
MADRS remitters (MADRS total score≤10) ([5]; 10 mg (N = 19), Week 16): 0/5
MADRS relaxed sustained responders ([5]; 10 mg (N = 19), Week 20): 0/3
MADRS sustained responders (response at Week 3 and all subsequent visits) ([5]; 10 mg (N = 19), Week 20): 0/3
MADRS sustained responders (response at Week 3 and all subsequent visits) ([5]; 10 mg (N = 19), Week 24): 0/3
MADRS sustained responders (response at Week 3 and all subsequent visits) ([5]; 10 mg (N = 19), Week 28): 0/4
MADRS sustained responders (response at Week 3 and all subsequent visits) ([5]; 10 mg (N = 19), Week 40): 0/5
MADRS sustained responders (response at Week 3 and all subsequent visits) ([5]; 10 mg (N = 19), Week 52): 0/5
MADRS relaxed sustained responders ([5]; 25 mg (N = 22), Week 40): 0/6
MADRS remitters (MADRS total score≤10) ([5]; 25 mg (N = 22), Week 40): 0/6
MADRS sustained responders (response at Week 3 and all subsequent visits) ([5]; 25 mg (N = 22), Week 40): 0/6
MADRS remitters (MADRS total score≤10) ([5]; 25 mg (N = 22), Week 52): 0/6
MADRS sustained responders (response at Week 3 and all subsequent visits) ([5]; 25 mg (N = 22), Week 52): 0/6
